# In patent publication US12139520B2 (priority 2020, dated 2024):
# Numbered stars: 1 amine (or outer) side, 2 acyl side, 3 side chain; on linkers, the order of the positions; unused ones are H or OH. Bridge positions count the residues as written; N and C are the ends. Square brackets hold non-standard residues; d marks the D form. Side chains are listed from the residue outwards. Peptide text beside a SMILES is read from it. * marks the point of attachment. C20 diacid = O=C(O)CCCCCCCCCCCCCCCCCCC(=O)*; γGlu = O=C(O)[C@H](CCC(=O)[*:2])N[*:1]; Hyp = O=C(O)[C@@H]1C[C@@H](O)CN1; AEEA = NCCOCCOCC(=O)O
# Tests used:
# hAMY3 receptor = target: T1, hAMY3 receptor (Homo sapiens, UniProt O60896+P30988); test: cAMP assay for in vitro receptor activation, hAMY3-R; assay type: cell-based; conditions: cAMP assay, hAMY3 receptor; read-out: hAMY3R EC50
# T1 sequence (P30988 25-474): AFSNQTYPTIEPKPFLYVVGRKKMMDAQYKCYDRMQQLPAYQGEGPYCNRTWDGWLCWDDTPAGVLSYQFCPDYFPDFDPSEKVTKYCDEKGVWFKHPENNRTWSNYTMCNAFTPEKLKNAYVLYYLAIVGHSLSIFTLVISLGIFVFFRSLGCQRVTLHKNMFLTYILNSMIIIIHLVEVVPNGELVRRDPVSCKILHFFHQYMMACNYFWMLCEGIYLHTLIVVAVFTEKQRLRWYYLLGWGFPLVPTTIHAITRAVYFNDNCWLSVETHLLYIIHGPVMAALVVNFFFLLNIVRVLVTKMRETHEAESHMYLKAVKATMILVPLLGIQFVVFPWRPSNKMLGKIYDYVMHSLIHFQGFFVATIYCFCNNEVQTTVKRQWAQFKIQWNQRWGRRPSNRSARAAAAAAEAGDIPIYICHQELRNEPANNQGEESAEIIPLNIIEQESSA
# T1 sequence (O60896 24-148 partner): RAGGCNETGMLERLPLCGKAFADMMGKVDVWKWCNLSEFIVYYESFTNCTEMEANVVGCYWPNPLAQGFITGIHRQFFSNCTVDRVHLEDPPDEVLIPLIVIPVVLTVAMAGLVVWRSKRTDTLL
# How it was run: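 Graded compound concentrations were applied for 30 min at room temperature to stably hAMY3-expressing cells in DPBS, 0.05% casein, 0.5 mM IBMX; cAMP detected by TR-FRET.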
# [1] = Physical stability of peptide analogues (Thioflavin T fibrillation); assay type: physicochemical; conditions: maximum ThT signal normalized between hAMY maximum and buffer background; 40° C., shaking, four days; pH 7 per table title
# How it was run: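 ThT fluorescence (450 nm excitation, 480 nm emission; 4 μM dye) was read every 10 min over four days at 40° C under 700 rpm shaking stress, after 1 h in pH 4 acetate or pH 7 phosphate (50 mM). Peak smoothed signal expressed as percent, scaled between buffer background and hAMY maximum.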
# [2] = Acute food intake study in lean rats; assay type: in vivo, rat; conditions: single SC injection, lean healthy rats; for Average cumulative food intake: up to 48 h, P < 0.001 vs vehicle
# Method: General Protocols for Acute Food Intake Study
# The effect on cumulative food intake was measured in male Sprague Dawley rats (6 weeks of age, Taconic, Denmark) following a single dose using a fully automated food intake monitoring system (HM-2; MBRose ApS, Faaborg, Denmark), allowing for advanced synchronous real-time monitoring of food intake behaviour of individual animals. The animals were housed in groups of 4 in a light-, temperature-, and humidity-controlled room (a 12/12 LD cycle, lights on at 02:00 AM; 22±2° C.; 50% relative humidity). The mice had ad libitum access to regular chow diet (Altromin 1324, Brogaarden A/S, Lynge, Denmark) and domestic quality tap water. Mice arrived at day 7, and a minimum of 5 days of habituation to the system was allowed prior to beginning of the study. During these days, the animals were handled daily to accustom them to the experimental paradigm. On the day of dosing, the animals were randomized into groups according to body weight. Animals were fasted for four hours prior to dosing. Animals were dosed SC 30 or 180 min prior to lights out, and food intake data were collected automatically for a total of 48 h post-dosing with automatic food recordings every 5 min.
# [3] = Chronic diet-induced obesity (DIO) study in rats; assay type: in vivo, rat; conditions: for Average body weight day 28 (gram): P < 0.001 vs vehicle
# Description: General Protocols for Chronic Diet-Induced Obesity (DIO) Study
# Sprague-Dawley rats (Taconic, Denmark) arrived at the age of 5 weeks. After one week of acclimation, they were evenly grouped based on their baseline body weight and offered ad libitum access a two-choice diet consisting of chow pellet (Altromin #1324, Brogaarden, Lynge, Denmark) and a high palatable high sugar/fat diet (1:1:1 mixture of Nutella (Ferrero, Alba, Italy), peanut butter (PCD, Rotterdam, Netherlands) and powdered standard chow (Altromin #1324, Brogaarden, Lynge, Denmark); 29.3% fat, 33.2% carbohydrate, and 18% protein) for up to 36 weeks. The rats were pair-housed throughout the study under controlled environmental conditions (12-hour light/dark cycle, lights off at 15:00; 22±1° C.; 50±10% relative humidity). Body weight, food and water intake were monitored daily during the entire period of the study. One day before the experiment, the rats were randomized according to body weight into experimental groups (n=9-10), which received compound or vehicle SC. QD (once daily) for 28 days.
# hAM1 receptor = hAM1 receptor (Homo sapiens, UniProt O60895+Q16602); test: cAMP assay for in vitro receptor activation, hAM1-R; assay type: cell-based; conditions: cAMP assay, hAM1 receptor; read-out: hAM1R EC50
# Chain of hAM1 receptor (Q16602 23-461): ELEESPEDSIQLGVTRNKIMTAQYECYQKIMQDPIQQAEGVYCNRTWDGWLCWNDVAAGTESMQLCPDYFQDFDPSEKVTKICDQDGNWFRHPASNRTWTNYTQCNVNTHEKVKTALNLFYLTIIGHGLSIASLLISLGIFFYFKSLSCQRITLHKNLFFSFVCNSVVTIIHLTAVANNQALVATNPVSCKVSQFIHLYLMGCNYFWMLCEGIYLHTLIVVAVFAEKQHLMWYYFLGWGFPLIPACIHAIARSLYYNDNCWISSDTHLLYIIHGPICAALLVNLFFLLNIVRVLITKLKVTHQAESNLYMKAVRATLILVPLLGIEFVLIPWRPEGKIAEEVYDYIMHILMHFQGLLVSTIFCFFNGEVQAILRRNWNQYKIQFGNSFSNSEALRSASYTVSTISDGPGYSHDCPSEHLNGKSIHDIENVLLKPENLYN
# Chain of hAM1 receptor (O60895 43-175 partner): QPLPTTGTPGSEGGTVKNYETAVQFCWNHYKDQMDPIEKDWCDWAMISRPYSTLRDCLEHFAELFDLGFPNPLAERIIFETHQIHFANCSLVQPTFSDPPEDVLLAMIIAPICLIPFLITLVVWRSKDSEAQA
# How it was run: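 Monoclonal stable hAM1-overexpressing cells, thawed from frozen stock; 8000 cells/well in DPBS + 0.05% casein + 0.5 mM IBMX; read-out cAMP.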
# [4] = 1 nmol/kg SC once daily for 28 days
# [5] = 3 nmol/kg SC once daily for 28 days
# [6] = 10 nmol/kg SC once daily for 28 days
EC50 (hAMY3 receptor) [nM],Max ThT signal (%) [1] [%],EC50 (hAM1 receptor) [nM],SMILES,"cumulative food intake, % to vehicle ([2]; 10 nmol/kg) [%]",Average cumulative food intake ([2]; 10 nmol/kg) [g],"cumulative food intake, % to vehicle ([2]; 30 nmol/kg) [%]",Average cumulative food intake ([2]; 30 nmol/kg) [g],"body weight day 28, % to vehicle [3, 4] [%]","Average body weight day 28 (gram) [3, 4] [gram]","body weight day 28, % to vehicle [3, 5] [%]","Average body weight day 28 (gram) [3, 5] [gram]","body weight day 28, % to vehicle [3, 6] [%]","Average body weight day 28 (gram) [3, 6] [gram]"
0.011,5.800,–,CC[C@H](C)[C@H](NC(=O)[C@H](CC(N)=O)NC(=O)[C@@H](NC(=O)[C@H](CCCNC(=N)N)NC(=O)[C@@H]1CCCN1C(=O)[C@H](C)NC(=O)[C@@H](NC(=O)[C@H](CC(N)=O)NC(=O)[C@H](CC(=O)O)NC(=O)[C@H](CCCCN)NC(=O)[C@H](CC(=O)O)NC(=O)[C@H](CCCCN)NC(=O)[C@H](CC(=O)O)NC(=O)[C@@H](NC(=O)[C@H](Cc1ccccc1)NC(=O)[C@H](CCC(N)=O)NC(=O)[C@H](Cc1ccc(O)cc1)NC(=O)[C@@H](NC(=O)[C@H](CCC(N)=O)NC(=O)[C@H](Cc1c[nH]cn1)NC(=O)[C@H](C)NC(=O)[C@H](CC(C)C)NC(=O)[C@H](CCCNC(=N)N)NC(=O)[C@H](CCC(N)=O)NC(=O)[C@@H](NC(=O)[C@@H](NC(=O)[C@@H]1CSSC[C@H](NC(=O)CN)C(=O)N[C@@H](CCCNC(=N)N)C(=O)N[C@@H](Cc2ccccc2)C(=O)NCC(=O)N[C@@H]([C@@H](C)O)C(=O)N1)[C@@H](C)O)C(C)C)[C@@H](C)CC)[C@@H](C)O)C(C)C)[C@@H](C)O)C(=O)NCC(=O)N1CCC[C@H]1C(=O)N[C@@H](CCC(N)=O)C(=O)NCC(=O)N1C[C@H](O)C[C@H]1C(N)=O [compound 46] (H-GCRFGTCTVQRLAHQIYQFTDKDKDNVAPRTNIGPQG[Hyp]-NH2; disulfide 2-7; N-terminus assumed),52.48,23.3,24.10,10.7,94.13,674,86.59,620,86.31,618
0.015,–,> 5000,CC[C@H](C)[C@H](NC(=O)[C@H](CCC(N)=O)NC(=O)[C@H](Cc1c[nH]cn1)NC(=O)[C@H](C)NC(=O)[C@H](CC(C)C)NC(=O)[C@H](CCCNC(=N)N)NC(=O)[C@H](CCC(N)=O)NC(=O)[C@@H](NC(=O)[C@@H](NC(=O)[C@@H]1CSSC[C@H](NC(=O)[C@H](CCCCN)NC(=O)CC[C@H](NC(=O)CCCCCCCCCCCCCCCCCCC(=O)O)C(=O)O)C(=O)N[C@@H](CC(N)=O)C(=O)N[C@@H]([C@@H](C)O)C(=O)N[C@@H](C)C(=O)N[C@@H]([C@@H](C)O)C(=O)N1)[C@@H](C)O)C(C)C)C(=O)N[C@H](C(=O)N[C@@H](CCC(N)=O)C(=O)N[C@@H](Cc1ccccc1)C(=O)N[C@H](C(=O)N[C@@H](CC(=O)O)C(=O)N[C@@H](CCCCN)C(=O)N[C@@H](CC(=O)O)C(=O)N[C@@H](CCCCN)C(=O)N[C@@H](CC(=O)O)C(=O)N[C@@H](CC(N)=O)C(=O)N[C@H](C(=O)N[C@@H](C)C(=O)N1CCC[C@H]1C(=O)N1CCC[C@H]1C(=O)N[C@H](C(=O)N[C@@H](CC(N)=O)C(=O)N[C@H](C(=O)NCC(=O)N[C@@H](CO)C(=O)N[C@@H](CC(N)=O)C(=O)NCC(=O)N1C[C@H](O)C[C@H]1C(N)=O)C(C)C)[C@@H](C)O)C(C)C)[C@@H](C)O)C(C)C [compound 85] ({C20 diacid-γGlu}-KCNTATCTVQRLAHQIVQFTDKDKDNVAPPTNVGSNG[Hyp]-NH2; disulfide 2-7),45.70,18.6,–,–,–,–,–,–,–,–
0.006,–,> 5000,CC[C@H](C)[C@H](NC(=O)[C@H](CCC(N)=O)NC(=O)[C@H](CCC(=O)O)NC(=O)[C@H](C)NC(=O)[C@H](CC(C)C)NC(=O)[C@H](CCCNC(=N)N)NC(=O)[C@H](CCC(N)=O)NC(=O)[C@@H](NC(=O)[C@@H](NC(=O)[C@@H]1CSSC[C@H](NC(=O)[C@@H](N)CCCCN)C(=O)N[C@@H](CC(N)=O)C(=O)N[C@@H]([C@@H](C)O)C(=O)N[C@@H](C)C(=O)N[C@@H]([C@@H](C)O)C(=O)N1)[C@@H](C)O)C(C)C)C(=O)N[C@@H](Cc1ccc(O)cc1)C(=O)N[C@@H](CCC(N)=O)C(=O)N[C@@H](Cc1ccccc1)C(=O)N[C@H](C(=O)N[C@@H](CC(=O)O)C(=O)N[C@@H](CCCCN)C(=O)N[C@@H](CC(=O)O)C(=O)N[C@@H](CCCCN)C(=O)N[C@@H](CC(=O)O)C(=O)N[C@@H](CC(N)=O)C(=O)N[C@H](C(=O)N[C@@H](C)C(=O)N1CCC[C@H]1C(=O)N1CCC[C@H]1C(=O)N[C@H](C(=O)N[C@@H](CC(N)=O)C(=O)N[C@H](C(=O)NCC(=O)N[C@@H](CO)C(=O)N[C@@H](CCCCNC(=O)COCCOCCNC(=O)COCCOCCNC(=O)CC[C@H](NC(=O)CCCCCCCCCCCCCCCCCCC(=O)O)C(=O)O)C(=O)NCC(=O)N1C[C@H](O)C[C@H]1C(N)=O)C(C)C)[C@@H](C)O)C(C)C)[C@@H](C)O [compound 6] (H-KCNTATCTVQRLAEQIYQFTDKDKDNVAPPTNVGSK([AEEA-AEEA-γGlu-C20 diacid])G[Hyp]-NH2; disulfide 2-7; N-terminus assumed),65.63,27.5,–,–,–,–,–,–,–,–
0.009,–,> 5000,CC[C@H](C)[C@H](NC(=O)[C@H](CCC(N)=O)NC(=O)[C@H](CCC(=O)O)NC(=O)[C@H](C)NC(=O)[C@H](CC(C)C)NC(=O)[C@H](CCCNC(=N)N)NC(=O)[C@H](CCC(N)=O)NC(=O)[C@@H](NC(=O)[C@@H](NC(=O)[C@@H]1CSSC[C@H](NC(=O)[C@@H](N)CCCCN)C(=O)N[C@@H](CCCCNC(=O)COCCOCCNC(=O)COCCOCCNC(=O)CC[C@H](NC(=O)CCCCCCCCCCCCCCCCCCC(=O)O)C(=O)O)C(=O)N[C@@H]([C@@H](C)O)C(=O)N[C@@H](C)C(=O)N[C@@H]([C@@H](C)O)C(=O)N1)[C@@H](C)O)C(C)C)C(=O)N[C@@H](Cc1ccc(O)cc1)C(=O)N[C@@H](CCC(N)=O)C(=O)N[C@@H](Cc1ccccc1)C(=O)N[C@H](C(=O)N[C@@H](CC(=O)O)C(=O)N[C@@H](CCCCN)C(=O)N[C@@H](CC(=O)O)C(=O)N[C@@H](CCCCN)C(=O)N[C@@H](CC(=O)O)C(=O)N[C@@H](CC(N)=O)C(=O)N[C@H](C(=O)N[C@@H](C)C(=O)N1CCC[C@H]1C(=O)N1CCC[C@H]1C(=O)N[C@H](C(=O)N[C@@H](CC(N)=O)C(=O)N[C@H](C(=O)NCC(=O)N[C@@H](CO)C(=O)N[C@@H](CC(N)=O)C(=O)NCC(=O)N1C[C@H](O)C[C@H]1C(N)=O)C(C)C)[C@@H](C)O)C(C)C)[C@@H](C)O [compound 36] (H-KCK([AEEA-AEEA-γGlu-C20 diacid])TATCTVQRLAEQIYQFTDKDKDNVAPPTNVGSNG[Hyp]-NH2; disulfide 2-7; N-terminus assumed),55.61,23.3,–,–,–,–,–,–,–,–
